Assays:
GSK-3 = system: GSK-3; set-up: method as in PMID 24437940; conditions: read-out: GSK-3 inhibition IC50; cited from earlier work
[1] = system: OPCs isolated from P0 mice; assay: Differentiation assay, murine OPCs; type: cell-based, mouse; conditions: murine P0 OPCs, 1 μM, 5, 7 and 10 DIV
Method: (§1) We isolated OPCs, as previously described. Briefly, a stock papain solution was prepared containing ([…]; Worthington Biochemical), L-cysteine (0.2 mg/ml; Sigma), and EDTA (0.2 mg/ml; Sigma) in Hank’s Balanced Salt Solution (HBSS; Invitrogen) without Ca^2+ and Mg[2]. Then, the cerebral cortices of P0 CD1 mice were dissected out and placed for 5 minutes at 37 °C in a medium containing the stock papain solution in HBSS with Ca^2+ and Mg^2+ (1:10; Invitrogen) in order to easily remove the meninges. Once meninges and choroid plexus were removed, the tissue was enzymatically dissociated for 5 minutes at 37 °C again by using the papain solution (1:10 in HBSS without Ca^2+ and Mg^2+) and the digested tissue was then filtered through a 100 μm nylon mesh strainer (BD Biosciences) and seeded on poly-L-ornithine-coated (Sigma) 75 cm^2 flasks in DMEM medium (Invitrogen) containing 10% foetal bovine serum (FBS; BioWhittaker) and 100 U/mL penicillin, 0.1 mg/mL streptomycin and 0.25 μg/ml Amphotericin B antibiotic antimycotic solution (Sigma). Cultures were maintained at 37 °C and 5% CO2, and the medium was changed every 3 days. When the cultures reached confluence, they were shaken overnight at 250 rpm and at 37 °C in order to detach the OPCs located on the top of the confluent astrocyte monolayer and the medium was then filtered through a 40μm nylon mesh strainer (BDBiosciences) and centrifuged at 900 rpm. Cells were seeded twice (45 minutes each) in bacterial grade Petri dishes (Sterilin) to remove microglial cells. The resulting enriched oligodendrocyte progenitor cell suspension was counted and seeded.
(§2) Purified OPCs were placed on coverslips coated with poly-L-lysine and laminin in 24-well tissue culture dishes at a density of 2 × 10^4 cells/well. To promote differentiation, the cells were maintained in the differentiation medium (described above) and PDE7-GSK3 or GSK3 inhibitors (VP3.15 or TDZD8; 1 μM) were added to the culture medium. Different controls were used for the dual or single inhibitors due to the active substance being dissolved in differing amounts of DMSO. After 5, 7 and 10 DIV the cells were fixed with 4% PFA for further immunocytochemical analysis. Anti-CNPase antibodies (1:200;Covance; Cat#SMI-91R), anti-MBP antibodies (1:200; Serotec; Cat#MCA4095) for detecting oligodendrocytes and anti-Olig2 antibodies (1:250; Millipore; Cat#AB9610) as a marker for all oligodendroglial stages were used. Ten random fluorescence digital images were taken in each coverslip with a DFC480 FX digital camera (Leica) coupled to a Leica DM5000 B microscope for quantification. Data were expressed as a mean ratio of differentiated oligodendrocytes (CNPase^+-Olig2^+ double positive cells) with respect to total Olig2^+ cells ± SEM or percentage of CNPase^+ cells respect to control ± SEM, in at least three independent experiments, except with human samples (two independent experiments).

adult human OPCs = assay: Differentiation assay, adult human OPCs; type: cell-based; conditions: adult human OPCs, 1 μM, 5 DIV
Method: Human brain samples were obtained from adult patients of temporal lobe epilepsy resistant to pharmacological treatment or traumatic brain injury; they underwent surgical treatment by the Neurosurgery Service at the Hospital Universitario de La Princesa (Madrid, Spain) and Hospital 12 de Octubre (Madrid, Spain). All tissue samples were obtained under protocols approved by the Research Ethics Committee of Toledo (Spain) review boards. All were conducted in accordance with the Helsinki Declaration and were approved by the Research Ethics Committee of Toledo (Spain). All patients provided informed consent prepared under the guidelines of the Research Ethics Committee at their respective hospital in Madrid (Spain).
For cells obtained from human biopsies, the same protocol was used except that papain solution was used 1:2.5 in HBSS for 10 minutes for meningeal disintegration and 1:10 in HBSS for 15 minutes for the tissue digestion, 25 cm[2] flasks were used, the medium was supplemented with 10 ng/ml of human PDGF-AA (Millipore) for 2 weeks and then incubated for 2 more weeks without growth factors before shaking and the shaking was carried out at 230 rpm instead of 250 rpm.
as §2

OPCs from P0 mice [2] = assay: Proliferation assay (BrdU incorporation); type: cell-based, mouse; conditions: murine P0 OPCs, 1 μM, 72 h
Method: We isolated OPCs, as previously described. Briefly, a stock papain solution was prepared containing ([…]; Worthington Biochemical), L-cysteine (0.2 mg/ml; Sigma), and EDTA (0.2 mg/ml; Sigma) in Hank’s Balanced Salt Solution (HBSS; Invitrogen) without Ca^2+ and Mg[2]. Then, the cerebral cortices of P0 CD1 mice were dissected out and placed for 5 minutes at 37 °C in a medium containing the stock papain solution in HBSS with Ca^2+ and Mg^2+ (1:10; Invitrogen) in order to easily remove the meninges. […] The resulting enriched oligodendrocyte progenitor cell suspension was counted and seeded.
OPCs were placed on coverslips coated with poly-L-lysine (Sigma) and laminin (Sigma; 2 × 10^4 cells/well) and they were incubated with the inhibitors (VP3.15 or TDZD8; 1 μM) in the serum free medium described above. After 42 h in culture, BrdU (50 μM; Sigma) was added for 6 h and after a total of 72 h in culture, the cells were fixed and BrdU incorporation was detected by immunocytochemistry (1:20; G3G4, HybridomaBank) combined with the detection of the oligodendroglial marker Olig2 (1:250; Millipore; Cat#AB9610). […]

OPCs from P0 mice [3] = assay: Survival assay (Casp3+-A2B5+ cells); type: cell-based, mouse; conditions: murine P0 OPCs, 1 μM, 2 DIV
Method: as §1, with “When the cultures reached confluence, they were shaken overnight at 250 rpm and at 37 °C in order to detach the OPCs located on the top of the confluent astrocyte monolayer and the medium was then filtered through a 40μm nylon mesh strainer (BDBiosciences) and centrifuged at 900 rpm. Cells were seeded twice (45 minutes each) in bacterial grade Petri dishes (Sterilin) to remove microglial cells.” left out, “seeded. […]” for “seeded.”

PDE7 = system: PDE7; set-up: method as in PMID 24437940; conditions: cited from earlier work
[4] = system: cerebellar slices demyelinated with LPC; assay: Ex vivo remyelination in cerebellar slice cultures demyelinated with LPC; type: cell-based, CD1 P7 mice; conditions: 5 μM, 3 days post lesion (3DPL)
Method: The protocol used was modified from previously described. CD1 P7 mice were decapitated, and their cerebella were dissected into ice-cold HBSS (Invitrogen). 300 μm sagittal slices of cerebellum were cut using a McIllwain tissue chopper, placed on Millicell-CM organotypic culture inserts (3 slices per insert; Millipore) in a medium containing HBSS:BME: horse serum (1:2:1, Invitrogen), 28 mM D (+) - glucose (Normapur), […] L-Glutamine (Invitrogen) and 100 U/mL penicillin, 0.1 mg/mL streptomycin and 0.25 μg/ml Amphotericin B antibiotic anti-mycotic solution (Sigma) and maintained at 5% CO2 and 37 °C. Medium was changed every two days, and after 7 days in culture, demyelination was induced by addition of 0.5 mg/ml LPC (Sigma) to the medium for 15 h. After that, slices were treated with fresh medium containing PDE7-GSK3 or GSK3 inhibitors (VP1.15, VP3.15 or TDZD8; 5 μM). Cultures were maintained for 1 or 3 days post lesion (DPL), and then fixed for 40 minutes and immunostained with anti-MBP antibodies (myelin basic protein –as a marker of myelin; 1:200; Serotec; Cat#MCA4095) and anti-neurofilament antibody (as a marker of axons; 1:200; Abcam; Cat#ab8135). Fluorescence images were taken on a confocal SP5 resonant scanner (Leica Microsystems) at 1μm intervals in white matter areas at x40 magnification. The photographs were merged and co-localisation of both markers was quantified with Image J software using the colocalization highlighter plugin. This measurement was related to the area occupied by axons (neurofilament staining) and normalized with control values showing the data as the mean normalized myelination index ± SEM. Quantification was made in at least three independent experiments.

Cn1sc(=O)n(Cc2ccccc2)c1=O [TDZD8, reference compound]
IC50 (GSK-3): 690 nM | number of mature oligodendrocytes (CNPase+-Olig2+ cells) vs control [1]: no effect | number of CNPase+-Olig2+ cells vs control (differentiation) (adult human OPCs): did not show any effect | OPC proliferation (BrdU+-Olig2+ cells) (OPCs from P0 mice [2]): no changes | OPC survival (Casp3+-A2B5+ apoptotic cells) (OPCs from P0 mice [3]): increased OPC survival | PDE7 inhibition (PDE7): does not inhibit PDE7 | IC50 (PDE7; read-out: PDE7 inhibition IC50): > 100000 nM | remyelination (normalized myelination index) [4]: no effect
